{
  "source": "patent US12257280B2",
  "about": "“Composition for preventing or treating muscular diseases, containing, as active ingredient, Glycyrrhiza uralensis extract or compound isolated therefrom” (NEO CREMAR CO., LTD., priority 2019, dated 2025)",
  "key": {"[1]": {"tested_on": "C2C12 cells", "experiment": "Differentiation of myoblasts into myotubes (Giemsa stain, fusion index)", "type": "cell-based, mouse", "protocol": "The medium was changed every 2 days and the cells were cultured at 37° C. The medium of the cells was removed and the cells were washed with PBS. After washing, a 1:1 volume ratio of methanol:PBS was treated and then fixed for 2 minutes. Additionally, a 2:1 volume ratio of methanol:PBS reagent was added, followed by further fixation for 2 minutes. After 2 minutes, 0.04% Giemsa reagent was added, allowed to stand for 30 minutes, washed with PBS after 30 minutes, and then the appearance of the cells was observed under a microscope, and three photos of the cells were taken (300×). In the photographs taken, the number of fused nuclei in the myotube cells was counted, the total number of nuclei was counted, and the number of fused nuclei was divided by the total number of nuclei to calculate % value."}, "[2]": {"tested_on": "C2C12 cells", "experiment": "Myoblast proliferation verification (MTT assay) in C2C12 cells", "type": "cell-based, mouse", "conditions": "for increased proliferation of cells compared to untreated cells: isolated final compounds, 0.5 ng/ml, 1 day, MTT (FIG. 7a)", "quoted_text": "C2C12 cells, a mouse myoblast cell line, were cultured in Dulbecco's Modified Eagle's Medium (DMEM) containing 10% Fetal bovine serum (FBS) and 1% Penicillin/streptomycin (P/S).\nTo verify cell proliferation, the cell culture medium was removed and the cells was washed with DMEM, and then 500 μl of MTT reagent (0.5 mg/ml) dissolved in phosphate buffered saline (PBS) was added to each well and left for 1 hour at 37° C. The reaction solution was removed and 1000 μl of dimethyl sulfoxide (DMSO) was added to each well. Purple formazan crystals were completely dissolved in DMSO and absorbance was measured at 540 nm."}, "[3]": {"tested_on": "C57BL/6 mice", "experiment": "Muscle regeneration effect in mice with or without cardiotoxin (CTX) injection into gastrocnemius muscle", "type": "in vivo, mouse", "protocol": "In order to observe the muscle regeneration effect according to the treatment of hot water extract of licorice or the final substance liquiritigenin, the mice were ingested with licorice hot water extract or liquiritigenin and Cardiotoxin (CTX) was/was not injected into the muscle and then the morphology and regeneration of the muscles were observed. C57BL/6 mice were ingested with licorice hot water extract (100 mg/kg) or liquiritigenin (15 mg/kg) and […] cardiotoxin was injected into the gastrocnemius muscle. After cardiotoxin injection, licorice hot water extract or liquiritigenin was ingested every day, and muscle tissue was sampled 7 days after non-injection or injection of cardiotoxin. The diameter (μm) of the muscle secured 7 days after non-injection or injection of cardiotoxin was measured using an image J program."}, "[4]": {"conditions": "isolated final compounds, 0.25 ng/ml (FIG. 7b)"}, "[5]": {"conditions": "purchased compound, 15 mg/kg ingested daily"}, "[6]": {"conditions": "purchased compounds, 0.25 ng/ml (FIG. 7c)"}},
  "data": [
    {"smiles": "COc1c(/C=C/C(=O)c2ccc(O)cc2)ccc(O)c1O", "note": "[licochalcone B, Licochalcone B]", "values": [
      {"measurement": "myotube formation and fusion index increase", "setting": "[1]; [4]", "value": 19, "unit": "%"},
      {"measurement": "myotube formation and fusion index increase", "setting": "[1]; purchased compounds (FIG. 7d)", "value": 20, "unit": "%"},
      {"measurement": "increased proliferation of cells compared to untreated cells", "setting": "[2]", "value": 11, "unit": "%"},
      {"measurement": "proliferation of cells increased compared to non-treated cells", "setting": "[2]; purchased compound, 1 ng/ml (FIG. 7c)", "value": 11, "unit": "%"}
    ]},
    {"smiles": "O=C1C[C@@H](c2ccc(O)cc2)Oc2cc(O)ccc21", "note": "[liquiritigenin, Liquiritigenin]", "values": [
      {"measurement": "myotube formation and fusion index increase", "setting": "[1]; [4]", "value": 13, "unit": "%"},
      {"measurement": "myotube formation and fusion index increase", "setting": "[1]; purchased compounds (FIG. 7d)", "value": 20, "unit": "%"},
      {"measurement": "diameter of the regenerated muscle", "setting": "[3]; 15 mg/kg, CTX-injected, 7 days, not ingested 78±4", "value": "91±3", "unit": "μm"},
      {"measurement": "muscle diameter (muscle fiber size)", "setting": "[3]; 15 mg/kg, second pair of values, apparently non-injected muscle, not ingested 124±4", "value": "139±4", "unit": "μm"},
      {"measurement": "body and gastrocnemius muscle weights vs non-treated controls", "setting": "[3]; [5]", "value": "similar"},
      {"measurement": "muscle mass reductions vs non-treated controls", "setting": "[3]; [5]", "value": "less"},
      {"measurement": "increased proliferation of cells compared to untreated cells", "setting": "[2]", "value": 10, "unit": "%"},
      {"measurement": "proliferation of cells increased compared to non-treated cells", "setting": "[2]; [6]", "value": 5, "unit": "%"}
    ]},
    {"smiles": "COc1c(/C=C/C(=O)c2ccc(O)c(O)c2)ccc(O)c1O", "note": "[tetrahydroxymethoxychalcone, Tetrahydroxy methoxychalcone]", "values": [
      {"measurement": "myotube formation and fusion index increase", "setting": "[1]; [4]", "value": 28, "unit": "%"},
      {"measurement": "myotube formation and fusion index increase", "setting": "[1]; purchased compounds (FIG. 7d)", "value": 23, "unit": "%"},
      {"measurement": "increased proliferation of cells compared to untreated cells", "setting": "[2]", "value": 8, "unit": "%"},
      {"measurement": "proliferation of cells increased compared to non-treated cells", "setting": "[2]; [6]", "value": 5, "unit": "%"}
    ]}
  ]
}
